From PMC3627359 (Journal of medicinal chemistry, 2013)
Like-named read-outs stand apart in the source and are kept apart here.

Key:
[1] = tested on: PC12 cells expressing G93A SOD1; assay: Mutant SOD1-induced cytotoxicity protection assay; assay type: cell-based
[2] = In vitro microsomal stability; assay type: in vitro ADME; settings: Mouse microsomes, data from Apredica
[3] = tested on: cortical neurons; assay: Primary cortical neuron protection assay; assay type: cell-based
[4] = In vitro microsomal stability; assay type: in vitro ADME; settings: Human microsomes, data from Apredica
[5] = In vitro Caco-2 permeability; assay type: in vitro ADME; settings: human
[6] = cited from earlier work

Row | Structure (SMILES) | NADPH-absent CLint (microsomal intrinsic clearance) [2] [mL/min/kg] | NADPH-dependent CLint (microsomal intrinsic clearance) [2] [mL/min/kg] | NADPH-absent CLint (microsomal intrinsic clearance) [4] [mL/min/kg] | NADPH-dependent CLint (microsomal intrinsic clearance) [4] [mL/min/kg] | other results
1 | CN(Cc1cc(=O)n(Cc2ccccc2)[nH]1)c1cc(Cl)cc(Cl)c1 [Compound 29, 2-Benzyl-5-(((3,5-dichlorophenyl)(methyl)amino)methyl)-1H-pyrazol-3(2H)-one] |  |  |  |  | Activity in the PC12 assay [1]: comparable in activity to parent compound 3
2 | CN(Cc1cc(=O)[nH][nH]1)c1cc(Cl)cc(Cl)c1 [Compound 3, 5-(((3,5-Dichlorophenyl)(methyl)amino)methyl)-1H-pyrazol-3(2H)-one] | 0 | 93 | 0 | 0 | Neuronal activity recovered ([3]; 10 μM concentration): 100%
3 | O=c1cc(COc2cc(Cl)cc(Cl)c2)[nH][nH]1 [Compound 1] | 21 | 64 | 13 | 25 | efflux ratio [5]: 0.4; AUC/dose ([6]; i.v. administration): 184 ng*h/mL/dose; PK half-life ([6]; in vivo PK): 3.6 h; AUC/dose ([6]; p.o. administration): 50 ng*h/mL/dose; Oral bioavailability ([6]; p.o. vs i.v.): 27%
4 | CN(Cc1cc(=O)n(C)[nH]1)c1cc(Cl)cc(Cl)c1 [Compound 30, 5-(((3,5-Dichlorophenyl)(methyl)amino)methyl)-2-methyl-1H-pyrazol-3(2H)-one] |  |  |  |  | Activity in the PC12 assay [1]: comparable in activity to parent compound 3
5 | O=c1[nH][nH]c2c1CN(c1cc(Cl)cc(Cl)c1)CC2 [Compound 27, 5-(3,5-Dichlorophenyl)-4,5,6,7-tetrahydro-1H-pyrazolo[4,3-c]pyridin-3(2H)-one] |  |  |  |  | Activity with cortical neurons [3]: not active
6 | O=c1cc(CNc2cc(Cl)cc(Cl)c2)[nH][nH]1 [Compound 2, 5-((3,5-Dichlorophenylamino)methyl)-1H-pyrazol-3(2H)-one] | 23 | 78 | 0 | 24 | 
7 | CN(CCCc1cc(=O)[nH][nH]1)c1cc(Cl)cc(Cl)c1 [Compound 24, 5-(3-((3,5-Dichlorophenyl)(methyl)amino)propyl)-1H-pyrazol-3(2H)-one] |  |  |  |  | Activity with cortical neurons [3]: not active
